Source: US8367602B2, “Consensus peptides and a method for inducing biomineralization” (Corticalis AS, priority 2006, dated 2013)
Where “and” joins values, the source holds several entries; their conditions need not be identical. Equal entries are not always repeated. Ends that are not written are not given here.

How the values were obtained:
[1] = test system: LDH activity; assay: Wound fluid LDH activity at implant site, tresyl chloride coupled peptide, Example 5; assay type: in vivo, rabbits (New Zealand White); settings: 4 weeks healing, vs control implants; tresyl chloride coupling
Procedure: The surface of the machined titanium implant was first covered with 10 μl of tresyl chloride (2,2,2-trifluoroethanesulfonyl chloride) and incubated at 37° C. for 2 days. Then, the tresylated titanium implant was washed with water, water-acetone (50:50), acetone, and dried in a desiccator.
Peptide solution (10 μl, 0.1 mg/ml) was applied to the surface of the titanium implant and incubated for 24 h at 37° C., then rinsed with water. Finally, implants were dried in a desiccator, packed and stored at 4° C.
(§1) The implants with consensus peptide coated surfaces (n=12) and controls (n=12) were placed in calibrated cortical bone defects in the tibia of rabbits (New Zealand White). A small central fenestration into the bone marrow beneath each implant was made to allow for migration of osteogenic cells to the implant surfaces. The methods used were all according to a standardized and validated model established for the study of bone attachment to titanium implant surfaces (Rønold and Ellingsen, 2002). Each rabbit received four implants, two in each tibia bone. Location of test and control implants was randomized and the operator was blinded. At four weeks after implantation the rabbits were sacrificed and the tibia bones with the implants attached were excised. […]
(§2) LDH activity and total protein was analysed in the wound fluid collected from the implant site following a 4 week healing period. […]

[2] = test system: LDH activity; assay: Wound fluid LDH activity at implant site, physically adsorbed peptide, Example 6; assay type: in vivo, rabbits (New Zealand White); settings: 4 weeks healing, vs control implants; physical adsorption
Procedure: Peptides can be physically adsorbed onto a titanium surface, as an alternative method for covalent binding. Negatively charged carboxylic groups show a strong affinity for metal oxide surfaces and can therefore directly interact with the titanium surface (Imamura et al, 2007). Peptide solution (10 μl, 0.1 mg/ml) was applied to the surface of the titanium implant and incubated for 24 h at 37° C. After 24 h, titanium implants were rinsed and packed with the same method as described above. Control implants were treated with 10 μl of PBS without adding peptide.
as §1, with “blinded.” for “blinded. At four weeks after implantation the rabbits were sacrificed and the tibia bones with the implants attached were excised.”
as §2

[3] = Isoelectric point (pI) of the peptide; assay type: physicochemical
[4] = Mineral precipitation (mfu by SEM) on peptide-coated coin shaped titanium specimens, Example 1
Procedure: Eight coin shaped implants with a diameter of 6.25 mm, was attached to an titanium electrode and submerged in an sterile electrolyte containing 0.5 M NaCl, adjusted to pH 8.0 by the use of 1.0 M NaOH, and a synthetic poly-proline peptide designed to stimulate nucleation of calcium phosphate crystals. The peptide, having a pI of 5.82, had the following sequence: PLV PSY PLV PSY PLV PSY PYP PLPP (SEQ ID NO:3), and was applied at a final concentration of 0.01 mg/ml in the electrolyte. The electrode was attached to the positive outlet of a power supply, and an electrical current of 10 Volts at 100 mA at a cell temperature of 40 degrees Celsius, was applied for eight hours. The electrolytic process produced a thin peptide coating onto the oxidized titanium surface visible as a greyish precipitation. After coating the titanium specimens were rinsed in sterile water and subsequently put into sterile glass containers where they were allowed to air-dry. Eight identical titanium specimens, treated identically as the test specimens with the exception that no peptides were added to the electrolyte, was produced as controls. After drying, the titanium specimens (peptide coated and controls) were submerged in 50 ml of a saturated solution of calcium phosphate at 50 degrees Celsius. The solution was then allowed to cool to room temperature and incubated at 25 degrees Celsius for 48 hours. The titanium specimens were then removed from the solution, rinsed briefly in sterile water and air-dried in a desiccator. When dry, the implants were directly analyzed by scanning electron microscopy (SEM) for quantitative and qualitative assessment of the number and nature of mineral precipitation foci present on their surfaces. The number of mineral forming units (mfu) on the surface directly corresponds to the number of mineral nucleation sites present on the surface during the experiments.
This is a strong indication that the synthetic peptide used here positively influence the formation of bone mineral deposition onto titanium surfaces.

Row | Substance | LDH activity in the periimplant tissue (wound fluid) [1] | LDH activity in the periimplant tissue (wound fluid) [2] | pI [3] | Number of mineral forming units (mfu) per square mm titanium surface assessed by SEM ([4]; individual peptide coated specimens, saturated calcium phosphate solution, 48 hours at 25 degrees Celsius) | Number of mineral forming units (mfu) per square mm titanium surface assessed by SEM, mean values ([4]; mean of peptide coated specimens (n = 8)) [mfu mfu per square mm] | number of mineral deposition foci versus controls ([4]; peptide coated titanium specimens vs controls without peptide)
1 | PLVPSQPLVPSQPLVPSQPQPPLPP [SEQ ID NO 4, PLV PSQ PLV PSQ PLV PSQ PQP PLPP] | decrease | decrease | – | – | – | –
2 | PLV PSY PLV PSY PLV PSY PYP PLPP (PLVPSYPLVPSYPLVPSYPYPPLPP; Mineralization/biomineralization inducing peptide) [SEQ ID NO 3] | – | – | 5.82 | 5625 mfu mfu per square mm and Confluent (Values above 10.000 are recorded as “Confluent”) (4×) and 7744 mfu mfu per square mm and 9025 mfu mfu per square mm and 8100 mfu mfu per square mm | >8812 | significantly (p<0.01) increased
